According to patent US8063053B2, “1-(arylsulfonyl)-4-(piperazin-1-yl)-1H-benzimidazoles as 5-hydroxytryptamine-6 ligands” (Wyeth LLC, priority 2008, dated 2011):

Each compound was assayed against T1, serotonin 5-HT6 receptor subtype (Homo sapiens, UniProt P50406) (assay: 5-HT6 binding affinity ([3H]-LSD SPA binding)). Details: not given.
T1 construct: host or cells: CHO-Dukx-A2 cells, clone 50-7
T1 sequence (P50406 whole entry): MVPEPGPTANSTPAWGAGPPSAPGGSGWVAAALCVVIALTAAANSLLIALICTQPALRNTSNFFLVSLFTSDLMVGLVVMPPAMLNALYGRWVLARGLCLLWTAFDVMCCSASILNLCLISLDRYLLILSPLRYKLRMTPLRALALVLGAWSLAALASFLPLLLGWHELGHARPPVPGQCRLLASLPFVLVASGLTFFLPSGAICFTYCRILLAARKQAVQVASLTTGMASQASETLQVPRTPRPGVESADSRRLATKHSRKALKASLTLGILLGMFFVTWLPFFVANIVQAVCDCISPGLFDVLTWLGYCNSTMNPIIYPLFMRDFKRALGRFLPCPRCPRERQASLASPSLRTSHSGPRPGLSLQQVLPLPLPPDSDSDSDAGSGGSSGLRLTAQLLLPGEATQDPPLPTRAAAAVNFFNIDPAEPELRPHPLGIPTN
O=S(=O)(c1ccccc1)n1cnc2c(N3CCNCC3)cccc21 [Example 3, 1-(phenylsulfonyl)-4-(piperazin-1-yl)-1H-benzo[d]imidazole] showed a Ki of 1.36 nM.

Same assay, conditions: read-out: 5-HT6 binding Ki
Work on O=S(=O)(c1cccc(OC(F)(F)F)c1)n1cnc2c(N3CCNCC3)cccc21 [Example 28, 4-piperazin-1-yl-1-{[3-(trifluoromethoxy)phenyl]sulfonyl}-1H-benzimidazole] yielded a Ki of 1.95 nM. Work on Cc1nc2c(N3CCNCC3)cccc2n1S(=O)(=O)c1ccccc1Cl [Example 15, 1-[(2-chlorophenyl)sulfonyl]-2-methyl-4-piperazin-1-yl-1H-benzimidazole] yielded a Ki of 0.99 nM. In the case of O=S(=O)(c1ccc(F)cc1)n1cnc2c(N3CCNCC3)cccc21 [Example 20, 1-[(4-fluorophenyl)sulfonyl]-4-piperazin-1-yl-1H-benzimidazole], the Ki is reported as 25 nM. Work on C[C@@H]1CN(c2cccc3c2ncn3S(=O)(=O)c2ccccc2Cl)CCN1 [Example 75, 1-[(2-chlorophenyl)sulfonyl]-4-[(3R)-3-methylpiperazin-1-yl]-1H-benzimidazole] yielded a Ki of 1.19 nM. Compound CC(C)CC1CN(c2cccc3c2ncn3S(=O)(=O)c2cccc3ccccc23)CCN1 (stereo not drawn) [Example 124, 4-(3-isobutylpiperazin-1-yl)-1-(1-naphthylsulfonyl)-1H-benzimidazole] has a Ki of 8.32 nM. O=S(=O)(c1cccc(F)c1F)n1cnc2c(N3CCNCC3)cccc21 [Example 83, 1-[(2,3-difluorophenyl)sulfonyl]-4-piperazin-1-yl-1H-benzimidazole] gave a Ki of 0.397 nM. For O=S(=O)(c1ccc(F)c(Cl)c1)n1cnc2c(N3CCNCC3)cccc21 [Example 29, 1-[(3-chloro-4-fluorophenyl)sulfonyl]-4-piperazin-1-yl-1H-benzimidazole], the Ki was 11.7 nM. CCN1CCN(c2cccc3c2ncn3S(=O)(=O)c2ccccc2)CC1 [Example 7, 4-(4-ethylpiperazin-1-yl)-1-(phenylsulfonyl)-1H-benzimidazole] showed a Ki of 0.394 nM. C[C@@H]1CN(c2cccc3c2ncn3S(=O)(=O)c2cccc(Cl)c2)CCN1 [Example 76, 1-[(3-chlorophenyl)sulfonyl]-4-[(3R)-3-methylpiperazin-1-yl]-1H-benzimidazole] gave a Ki of 2.35 nM. In the case of Cc1cccc(S(=O)(=O)n2c(C)nc3c(N4CCNCC4)cccc32)c1 [Example 18, 2-methyl-1-[(3-methylphenyl)sulfonyl]-4-piperazin-1-yl-1H-benzimidazole], the Ki is reported as 1.3 nM. Work on CC(C)c1nc2c(N3CCNCC3)cccc2n1S(=O)(=O)c1cccc2ccccc12 [Example 61, 2-(1-methylethyl)-1-(naphthalen-1-ylsulfonyl)-4-piperazin-1-yl-1H-benzimidazole] yielded a Ki of 0.6 nM. In the case of C[C@H]1CN(c2cccc3c2ncn3S(=O)(=O)c2ccccc2Cl)CCN1 [Example 79, 1-[(2-chlorophenyl)sulfonyl]-4-[(3S)-3-methylpiperazin-1-yl]-1H-benzimidazole], the Ki is reported as 0.282 nM. Compound COc1ccc(C)cc1S(=O)(=O)n1cnc2c(N3CCNCC3)cccc21 [Example 68, 1-[(2-methoxy-5-methylphenyl)sulfonyl]-4-piperazin-1-yl-1H-benzimidazole] has a Ki of 0.498 nM. Cc1nc2c(N3C[C@@H](C)N[C@@H](C)C3)cccc2n1S(=O)(=O)c1cccc2ccccc12 [Example 97, 4-[(3R,5S)-3,5-dimethylpiperazin-1-yl]-2-methyl-1-(naphthalen-1-ylsulfonyl)-1H-benzimidazole] showed a Ki of 3.8 nM. O=S(=O)(c1ccccc1)n1cnc2c(N3CCNCC3)cc(F)cc21 [Example 103, 6-fluoro-1-(phenylsulfonyl)-4-piperazin-1-yl-1H-benzimidazole] gave a Ki of 0.738 nM. In the case of CC(C)C1CN(c2cccc3c2ncn3S(=O)(=O)c2cccc3ccccc23)CCN1 (stereo not drawn) [Example 121, 4-(3-isopropylpiperazin-1-yl)-1-(1-naphthylsulfonyl)-1H-benzimidazole], the Ki is reported as 0.952 nM. In the case of O=S(=O)(c1ccccc1Cl)n1cnc2c(N3CCNCC3)cc(F)cc21 [Example 102, 1-[(2-chlorophenyl)sulfonyl]-6-fluoro-4-piperazin-1-yl-1H-benzimidazole], the Ki is reported as 0.698 nM. Cc1nc2c(N3C[C@@H]4C[C@H]3CN4)cccc2n1S(=O)(=O)c1cccc(F)c1 [Example 112, 4-[(1S,4S)-2,5-diazabicyclo[2.2.1]hept-2-yl]-1-[(3-fluorophenyl)sulfonyl]-2-methyl-1H-benzimidazole] showed a Ki of 39.9 nM. Work on O=S(=O)(c1ccccc1)n1cnc2c(N3C[C@@H]4C[C@H]3CN4)cccc21 [Example 104, 4-[(1S,4S)-2,5-diazabicyclo[2.2.1]hept-2-yl]-1-(phenylsulfonyl)-1H-benzimidazole] yielded a Ki of 44.7 nM. Cc1nc2c(N3CCNC(C)C3)cccc2n1S(=O)(=O)c1ccccc1 (stereo in doubt) [Example 114, 2-methyl-4-[(3R)-3-methylpiperazin-1-yl]-1-(phenylsulfonyl)-1H-benzimidazole] was tested, and the Ki was 3.17 nM. CC(C)CC1CN(c2cccc3c2ncn3S(=O)(=O)c2ccccc2Cl)CCN1 (stereo not drawn) [Example 125, 1-[(2-chlorophenyl)sulfonyl]-4-(3-isobutylpiperazin-1-yl)-1H-benzimidazole] showed a Ki of 4.98 nM. Cc1nc2c(N3C[C@@H](C)N[C@@H](C)C3)cccc2n1S(=O)(=O)c1cccc(F)c1 [Example 99, 4-[(3R,5S)-3,5-dimethylpiperazin-1-yl]-1-[(3-fluorophenyl)sulfonyl]-2-methyl-1H-benzimidazole] gave a Ki of 12.9 nM. With Cc1ccc(F)c(S(=O)(=O)n2cnc3c(N4CCNCC4)cccc32)c1 [Example 72, 1-[(2-fluoro-5-methylphenyl)sulfonyl]-4-piperazin-1-yl-1H-benzimidazole] the Ki was 0.254 nM. Work on Cc1nc2c(N3CCNCC3)cccc2n1S(=O)(=O)c1cccc(F)c1 [Example 26, 1-[(3-fluorophenyl)sulfonyl]-2-methyl-4-piperazin-1-yl-1H-benzimidazole] yielded a Ki of 1.7 nM. Compound COc1ccccc1S(=O)(=O)n1cnc2c(N3CCNCC3)cccc21 [Example 44, 1-[(2-methoxyphenyl)sulfonyl]-4-piperazin-1-yl-1H-benzimidazole] has a Ki of 0.156 nM. For COc1ccc(S(=O)(=O)n2cnc3c(N4CCNCC4)cccc32)cc1 [Example 24, 1-[(4-methoxyphenyl)sulfonyl]-4-piperazin-1-yl-1H-benzimidazole], the Ki was 15.1 nM. Cc1nc2c(N3CCNC(C)C3)cccc2n1S(=O)(=O)c1ccccc1 (stereo not drawn) [Example 91, 2-methyl-4-(3-methylpiperazin-1-yl)-1-(phenylsulfonyl)-1H-benzimidazole] gave a Ki of 2.44 nM. Work on CC1CN(c2cccc3c2ncn3S(=O)(=O)c2cccc3ccccc23)CCN1 (stereo not drawn) [Example 129, 4-(3-methylpiperazin-1-yl)-1-(1-naphthylsulfonyl)-1H-benzimidazole] yielded a Ki of 0.051 nM. For CC(C)c1nc2c(N3CCNCC3)cccc2n1S(=O)(=O)c1cccc(Cl)c1 [Example 60], the Ki was 1.08 nM. Work on Cc1nc2c(N3CCNCC3)cccc2n1S(=O)(=O)c1ccc2ccccc2c1 [Example 43, 2-methyl-1-(2-naphthylsulfonyl)-4-piperazin-1-yl-1H-benzimidazole] yielded a Ki of 1.05 nM. Compound Cc1cccc(Cl)c1S(=O)(=O)n1cnc2c(N3CCNCC3)cccc21 [Example 70, 1-[(2-chloro-6-methylphenyl)sulfonyl]-4-piperazin-1-yl-1H-benzimidazole] has a Ki of 2.33 nM. For Cc1nc2c(N3CCNC(C)C3)cccc2n1S(=O)(=O)c1ccccc1Cl (stereo not drawn) [Example 93, 1-[(2-chlorophenyl)sulfonyl]-2-methyl-4-(3-methylpiperazin-1-yl)-1H-benzimidazole], the Ki was 0.488 nM.
